Test results as given in publication PMC5472064 (Organic & biomolecular chemistry, 2017).
Where two headings read alike, the source gives them in different places.

Target: p97 ATPase WT (Homo sapiens, UniProt P55072)
Experiment: ADPGlo biochemical assay of p97 ATPase inhibition
Conditions: for effect of structural change on activity/potency (in words): p97 inhibition, versus indole NH / amide analogs

p97 ATPase WT, sequence (P55072 whole entry): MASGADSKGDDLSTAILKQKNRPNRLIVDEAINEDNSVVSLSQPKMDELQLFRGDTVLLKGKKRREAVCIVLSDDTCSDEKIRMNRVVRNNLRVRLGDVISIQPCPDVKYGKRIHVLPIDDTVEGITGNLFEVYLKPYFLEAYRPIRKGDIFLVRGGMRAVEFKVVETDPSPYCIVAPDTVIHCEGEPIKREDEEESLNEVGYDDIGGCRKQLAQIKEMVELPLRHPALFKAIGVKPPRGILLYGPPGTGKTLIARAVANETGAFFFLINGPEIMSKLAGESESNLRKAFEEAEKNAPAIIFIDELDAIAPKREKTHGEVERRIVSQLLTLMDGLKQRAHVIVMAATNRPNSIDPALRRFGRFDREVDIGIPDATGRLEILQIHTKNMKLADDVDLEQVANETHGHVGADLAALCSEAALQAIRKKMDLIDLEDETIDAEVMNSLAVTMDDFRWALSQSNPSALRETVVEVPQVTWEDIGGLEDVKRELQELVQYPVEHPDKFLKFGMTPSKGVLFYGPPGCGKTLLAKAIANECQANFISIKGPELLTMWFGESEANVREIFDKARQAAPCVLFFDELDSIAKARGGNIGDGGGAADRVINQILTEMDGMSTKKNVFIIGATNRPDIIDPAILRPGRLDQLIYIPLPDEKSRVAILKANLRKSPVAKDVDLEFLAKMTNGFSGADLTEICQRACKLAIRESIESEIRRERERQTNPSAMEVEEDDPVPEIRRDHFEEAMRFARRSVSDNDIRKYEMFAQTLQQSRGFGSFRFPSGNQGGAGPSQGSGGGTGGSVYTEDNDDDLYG

Row | Compound | IC50 | also measured
1 | CC(C)N1CCN(CCNC2CCN(c3cccc(-c4cc5ccccc5n4C)c3)CC2)CC1 [UPCDC30201, N-(2-(4-Isopropylpiperazin-1-yl)ethyl)-1-(3-(1-methyl-1H-indol-2-yl)phenyl)piperidin-4-amine] | > 50000 nM | effect of structural change on activity/potency (in words): ablates
2 | CC(C)N1CCN(CCNC2CCN(c3ccc4c(c3)-c3[nH]c5ccccc5c3CC4)CC2)CC1 [UPCDC30206, 1-(6,11-Dihydro-5H-benzo[a]carbazol-2-yl)-N-(2-(4-isopropylpiperazin-1-yl)ethyl)piperidin-4-amine] | 390 nM | 
3 | CC(C)N1CCN(CCNC2CCN(c3cccc(-c4ccc5ccccc5c4)c3)CC2)CC1 [UPCDC30222, N-(2-(4-Isopropylpiperazin-1-yl)ethyl)-1-(3-(naphthalen-2-yl)phenyl)piperidin-4-amine] | 5200 nM | effect of structural change on activity/potency (in words): greatly diminishes
4 | CC(C)N1CCN(CCNC2CCN(c3cccc(-c4cc5cc(F)ccc5[nH]4)c3)CC2)CC1 [UPCDC30245] |  | IC50 (read-out: ADPGlo IC50, 20 nM p97 ATPase WT, 100 μM ATP, repeated multiple times): 55 nM
5 | CC(C)N1CCN(CCNC2CCN(c3cccc(-c4nc5ccccc5[nH]4)c3)CC2)CC1 [UPCDC30250, 1-(3-(1H-Benzo[d]imidazol-2-yl)phenyl)-N-(2-(4-isopropylpiperazin-1-yl)ethyl)piperidin-4-amine] | 38500 nM | reduction of binding affinity (benzimidazole versus indole): > 2 orders of magnitude
6 | CC(C)N1CCN(CCNC2CCN(c3cccc(-c4cc5cc(C(N)=O)ccc5[nH]4)c3)CC2)CC1 [UPCDC30310, 2-(3-(4-((2-(4-Isopropylpiperazin-1-yl)ethyl)amino)piperidin-1-yl)phenyl)-1H-indole-5-carboxamide] | 100 nM | 
7 | CC(C)N1CCN(CCNC2CCN(c3cccc(-c4cc5cc(Cl)ccc5[nH]4)c3)CC2)CC1 [UPCDC30317, 1-(3-(5-Chloro-1H-indol-2-yl)phenyl)-N-(2-(4-isopropylpiperazin-1-yl)ethyl)piperidin-4-amine] | 190 nM | 
8 | COC(=O)c1ccc2[nH]c(-c3cccc(N4CCC(NCCN5CCN(C(C)C)CC5)CC4)c3)cc2c1 [UPCDC30341, Methyl 2-(3-(4-((2-(4-isopropylpiperazin-1-yl)ethyl)amino)piperidin-1-yl)phenyl)-1H-indole-5-carboxylate] | 130 nM | 
9 | CC(C)N1CCN(CCNC2CCN(c3cccc(-c4cc5cnccc5[nH]4)c3)CC2)CC1 [UPCDC30345, 1-(3-(1H-Pyrrolo[3,2-c]pyridin-2-yl)phenyl)-N-(2-(4-isopropylpiperazin-1-yl)ethyl)piperidin-4-amine] | 4000 nM | 
10 | Cc1ccc(N2CCC(NCCN3CCN(C(C)C)CC3)CC2)cc1-c1cc2cc(F)ccc2[nH]1 [UPCDC30346, 1-(3-(5-Fluoro-1H-indol-2-yl)-4-methylphenyl)-N-(2-(4-isopropylpiperazin-1-yl)ethyl)piperidin-4-amine] | 50 nM | 
11 | Cc1ccc(N2CCC(NCCN3CCN(C(C)C)CC3)CC2)cc1-c1cc2cc(C#N)ccc2[nH]1 [UPCDC30361, 2-(5-(4-((2-(4-Isopropylpiperazin-1-yl)ethyl)amino)piperidin-1-yl)-2-methylphenyl)-1H-indole-5-carbonitrile] | 87 nM | 
12 | CNC(=O)c1ccc2[nH]c(-c3cccc(N4CCC(NCCN5CCN(C(C)C)CC5)CC4)c3)cc2c1 [UPCDC30367, 2-(3-(4-((2-(4-Isopropylpiperazin-1-yl)ethyl)amino)piperidin-1-yl)phenyl)-N-methyl-1H-indole-5-carboxamide] | 450 nM | 
13 | CC(C)N1CCN(CCNC2CCN(c3cccc(-c4cc5cc(C(=O)N(C)C)ccc5[nH]4)c3)CC2)CC1 [UPCDC30368, 2-(3-(4-((2-(4-Isopropylpiperazin-1-yl)ethyl)amino)piperidin-1-yl)phenyl)-N,N-dimethyl-1H-indole-5-carboxamide] |  | effect of structural change on activity/potency (in words): near loss of all potency
14 | CC(C)N1CCN(CCNC2CCN(c3cccc(-c4cc5cc(F)cnc5[nH]4)c3)CC2)CC1 [UPCDC30381, 1-(3-(5-Fluoro-1H-pyrrolo[2,3-b]pyridin-2-yl)phenyl)-N-(2-(4-isopropylpiperazin-1-yl)ethyl)piperidin-4-amine] | 4740 nM | 
